Laboratory results as given in paper PMC11532403 (Signal Transduction and Targeted Therapy, 2024).
“And” between values parts separate entries of the source, which are not always exact repeats. Identical values can stand only once.

Test system: RET-altered solid tumors
Assay: Phase 1 trial: anti-tumor efficacy (RECIST 1.1)
Assay type: in vivo, human
Conditions: for PFS Follow-up (m) / PFS: Type of event: individual patients; for Best overall response: Partial response / Best overall response: Progressive disease / Best overall response: Stable disease / DCR, % (95% CI) / Median DoR, months (95% CI) / Median PFS, months (95% CI) / Median TTR, months (95% CI) / ORR, % (95% CI): patients with detectable RET variations
Experimental: Radiologic tumor assessments were conducted by computed tomography (CT) or magnetic resonance imaging (MRI) of brain, chest, abdomen, and pelvis at baseline, 4 weeks for the first tumor assessment, then every 8 weeks (± 7 days) for 1 year, and every 12 weeks (± 7 days) thereafter. MTC patients were longitudinally monitored for serum calcitonin and carcinoembryonic antigen (CEA) levels.

[1] = RP2D, PTC, treatment-naïve (n = 1)
[2] = Treatment-naïve, 40 mg BID (n = 1)
[3] = Treatment-naïve, 160 mg BID (n = 37)
[4] = Treatment-naïve, 200 mg BID (n = 2)
[5] = Treatment-naïve, all doses (n = 40)
[6] = baseline ctDNA detectable RET alterations (n = 61)
[7] = baseline ctDNA undetectable RET alterations (n = 53)
[8] = ctDNA analysis, all patients (n = 114)

COc1ccc(CN2C3CC2CN(c2ccc(-c4cc(N5CC(C)(O)C5)cn5ncc(C#N)c45)cn2)C3)cn1 [SY-5007, 6-(3-hydroxy-3-methylazetidin-1-yl)-4-(6-(6-((6-methoxypyridin-3-yl)methyl)-3,6-diazabicyclo[3.1.1]heptan-3-yl)pyridin-3-yl)pyrazolo[1,5-a]pyridine-3-carbonitrile]
ORR (95% CI) [1]: 0 (0.0-97.5) %
Partial response [1]: 0 (0.0) n (%)
Progressive disease [1]: 0 (0.0) n (%)
Stable disease [1]: 1 (100.0) n (%)
Median PFS (95% CI) [2]: 1.67 (NE-NE) months
ORR (95% CI) [2]: 0 (0.0–97.5) %
Partial response [2]: 0 (0.0) n (%)
Progressive disease [2]: 0 (0.0) n (%)
Stable disease [2]: 1 (100.0) n (%)
DCR (95% CI) (Treatment-naïve, 40 mg BID (n = 1), 40 mg twice daily): 100.0 (2.5–100.0) %
DCR (95% CI) [3]: 94.6 (81.8–99.3) %
Median DoR (95% CI) [3]: 14.5 (9.26-NE) months
Median PFS (95% CI) [3]: 15.5 (9.23-NE) months
Median TTR (95% CI) [3]: 2.75 (0.98–2.89) months
ORR (95% CI) [3]: 70.3 (53.0–84.1) %
Partial response [3]: 26 (70.3) n (%)
Progressive disease [3]: 2 (5.4) n (%)
Stable disease [3]: 9 (24.3) n (%)
DCR (95% CI) [4]: 100.0 (15.8–100.0) %
Median DoR (95% CI) [4]: 5.32 (5.06-NE) months
Median PFS (95% CI) [4]: 6.22 (5.98-NE) months
Median TTR (95% CI) [4]: 0.93 (0.91-NE) months
ORR (95% CI) [4]: 100.0 (15.8–100.0) %
Partial response [4]: 2 (100.0) n (%)
Progressive disease [4]: 0 (0.0) n (%)
Stable disease [4]: 0 (0.0) n (%)
DCR (95% CI) [5]: 95.0 (83.1–99.4) %
Median DoR (95% CI) [5]: 14.5 (6.47–NE) months
Median PFS (95% CI) [5]: 15.5 (9.23–NE) months
Median TTR (95% CI) [5]: 2.75 (0.95–2.89) months
ORR (95% CI) [5]: 70.0 (53.5–83.4) %
Partial response [5]: 28 (70.0) n (%)
Progressive disease [5]: 2 (5.0) n (%)
Stable disease [5]: 10 (25.0) n (%)
Estimated 6-month PFS rate (all patients): 86.1%
Estimated 12-month PFS rate (all patients): 68.9%
Patients with progression events or death (all patients in phase 1): 29 (23.8%) n (%)
DCR (95% CI) [6]: 96.7 (88.7-99.6) %
Median DoR (95% CI) [6]: 13.0 (9.23-19.9) months
Median PFS (95% CI) [6]: 13.8 (10.0-15.5) months
Median TTR (95% CI) [6]: 2.79 (1.01-6.73) months
ORR (95% CI) [6]: 57.4 (44.1-70.0) %
Partial response [6]: 35 (57.4) n (%)
Progressive disease [6]: 2 (3.3) n (%)
Stable disease [6]: 24 (39.3) n (%)
DCR (95% CI) [7]: 94.3 (84.3-98.8) %
Median TTR (95% CI) [7]: 3.15 (2.75-6.30) months
ORR (95% CI) [7]: 60.4 (46.0-73.5) %
Partial response [7]: 32 (60.4) n (%)
Progressive disease [7]: 3 (5.7) n (%)
Stable disease [7]: 18 (34.0) n (%)
DCR (95% CI) [8]: 95.6 (90.1-98.6) %
Median DoR (95% CI) [8]: 19.9 (12.8-NE) months
Median PFS (95% CI) [8]: 21.1 (13.8-NE) months
Median TTR (95% CI) [8]: 2.79 (2.75-4.66) months
ORR (95% CI) [8]: 58.8 (49.2-67.9) %
Partial response [8]: 67 (58.8) n (%)
Progressive disease [8]: 5 (4.4) n (%)
Stable disease [8]: 42 (36.8) n (%)
ORR (ctDNA-detectable KIF5B-RET (27/46)): 58.7%
ORR (ctDNA-detectable RET mutations (3/9)): 33.3%
ORR (ctDNA-detectable other RET fusions (5/7)): 71.4%
Median PFS (detectable RET, concomitant TP53 mutation): 10.1 months
ORR (detectable RET, concomitant TP53 mutation (11/22)): 50.0%
Median PFS (detectable RET, without TP53 mutation): 15.4 months
ORR (detectable RET, without TP53 mutation (24/39)): 61.5%
ORR (dose-escalation phase (9/17)): 52.9%
DCR (dose-escalation phase (16/17)): 94.1%
ORR (dose-expansion phase (58/99)): 58.6%
DCR (dose-expansion phase (95/99)): 96.0%
1-year DoR rate (in vivo): 74.1%
PFS Follow-up (m) (GC, 160mg BID): 1.02 m
PFS: Type of event (GC, 160mg BID): Censoring
PFS Follow-up (m) (MTC, 160mg BID): 5.75 m and 0.99 m and 2.76 m and 2.66 m and 6.41 m and 4.60 m and 0.85 m and 0.92 m and 14.72 m and 6.44 m and 11.96 m and 6.51 m and 13.90 m and 8.41 m and 4.57 m and 8.51 m and 6.60 m and 2.86 m and 8.38 m
PFS: Type of event (MTC, 160mg BID): Censoring
PFS Follow-up (m) (NSCLC, 20mg BID): 27.14 m
PFS Follow-up (m) (NSCLC, 20mg QD): 4.83 m
PFS: Type of event (NSCLC, 20mg QD): Censoring
PFS Follow-up (m) (NSCLC, 40mg BID): 25.07 m and 10.29 m and 1.68 m
PFS: Type of event (NSCLC, 40mg BID): Censoring
PFS Follow-up (m) (NSCLC, 80mg BID): 23.30 m and 6.64 m and 23.23 m
PFS: Type of event (NSCLC, 80mg BID): Censoring
PFS Follow-up (m) (NSCLC, 120mg BID): 21.39 m and 21.42 m and 21.13 m
PFS: Type of event (NSCLC, 120mg BID): Censoring
PFS Follow-up (m) (NSCLC, 200mg BID): 11.99 m and 11.96 m and 5.98 m and 5.75 m and 17.74 m and 3.15 m and 6.47 m and 12.16 m and 0.89 m
PFS: Type of event (NSCLC, 200mg BID): Censoring
PFS Follow-up (m) (PTC, 160mg BID): 8.35 m and 2.79 m and 8.38 m and 8.48 m and 6.67 m and 2.89 m and 2.92 m
ORR (non-clearance or unknown RET alterations at Cycle 1 Day 28 (16/42)): 38.1%
Best overall response: Partial response (TP53 mutant, n=22): 11 (50.0)
Best overall response: Progressive disease (TP53 mutant, n=22): 0 (0.0)
Best overall response: Stable disease (TP53 mutant, n=22): 11 (50.0)
DCR, % (95% CI) (TP53 mutant, n=22): 100.0 (84.6-100.0) %
Median DoR, months (95% CI) (TP53 mutant, n=22): 13.0 (2.82-NE) months
Median PFS, months (95% CI) (TP53 mutant, n=22): 10.1 (6.21-NE) months
Median TTR, months (95% CI) (TP53 mutant, n=22): 2.89 (0.95-NE) months
ORR, % (95% CI) (TP53 mutant, n=22): 50.0 (28.2-71.8) %
Best overall response: Partial response (TP53 wild-type, n=39): 24 (61.5)
Best overall response: Progressive disease (TP53 wild-type, n=39): 2 (5.1)
Best overall response: Stable disease (TP53 wild-type, n=39): 13 (33.3)
DCR, % (95% CI) (TP53 wild-type, n=39): 94.9 (82.7-99.4) %
Median DoR, months (95% CI) (TP53 wild-type, n=39): 19.9 (6.47-NE) months
Median PFS, months (95% CI) (TP53 wild-type, n=39): 15.4 (9.23-NE) months
Median TTR, months (95% CI) (TP53 wild-type, n=39): 2.79 (0.98-6.73) months
ORR, % (95% CI) (TP53 wild-type, n=39): 61.5 (44.6-76.6) %
Best overall response: Partial response (all patients, n=61): 35 (57.4)
Best overall response: Progressive disease (all patients, n=61): 2 (3.3)
Best overall response: Stable disease (all patients, n=61): 24 (39.3)
DCR, % (95% CI) (all patients, n=61): 96.7 (88.7-99.6) %
Median DoR, months (95% CI) (all patients, n=61): 13.0 (9.23-19.9) months
Median PFS, months (95% CI) (all patients, n=61): 13.8 (10.0-15.5) months
Median TTR, months (95% CI) (all patients, n=61): 2.79 (1.01-6.73) months
ORR, % (95% CI) (all patients, n=61): 57.4 (44.1-70.0) %
ORR (patients with rapid ctDNA clearance of RET alteration): 100%
Median TTR (patients with rapid ctDNA decline/clearance of RET alteration): 0.91 months
